Reference: patent US7482379B2, “Propenoyl hydrazides” (priority 2004, dated 2009)
Peptide text beside a SMILES is read from it. * marks the point of attachment. AFC = O=c1cc(C(F)(F)F)c2ccc(N*)cc2o1

Legend:
Caspase-6 = target: T1, Caspase-6 (Homo sapiens, UniProt P55212); experiment: Caspase-6 progress curve inhibition assay; details: second-order rate constant; Ac-DEVD-AMC substrate; Pipes buffer pH 7.2
T1 sequence (P55212 24-179 limits assumed): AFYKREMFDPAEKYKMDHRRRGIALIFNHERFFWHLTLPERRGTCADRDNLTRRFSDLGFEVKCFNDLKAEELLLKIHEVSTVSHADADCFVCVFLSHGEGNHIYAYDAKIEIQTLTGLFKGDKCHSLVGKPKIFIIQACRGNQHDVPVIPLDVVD
T1 sequence (P55212 194-293 limits assumed): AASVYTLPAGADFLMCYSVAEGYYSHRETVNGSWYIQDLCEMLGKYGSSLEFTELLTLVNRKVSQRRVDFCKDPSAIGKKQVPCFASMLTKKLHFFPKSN

Caspase-9 = target: T2, Caspase-9 (Homo sapiens, UniProt P55211); experiment: Caspase-9 progress curve inhibition assay; details: for k2 Caspase-9: second-order rate constant, Ac-LEHD-AFC substrate, Hepes buffer pH 7.0 with 0.7 M sodium citrate
T2 sequence (P55211 1-315 limits assumed): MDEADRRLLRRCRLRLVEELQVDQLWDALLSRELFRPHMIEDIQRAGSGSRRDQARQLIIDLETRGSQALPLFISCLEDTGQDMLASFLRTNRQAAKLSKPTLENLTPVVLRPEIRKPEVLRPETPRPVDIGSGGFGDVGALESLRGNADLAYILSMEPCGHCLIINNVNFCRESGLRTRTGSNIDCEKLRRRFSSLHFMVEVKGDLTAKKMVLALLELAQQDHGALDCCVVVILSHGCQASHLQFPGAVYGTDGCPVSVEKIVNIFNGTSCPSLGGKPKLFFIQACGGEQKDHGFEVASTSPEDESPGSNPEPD
T2 sequence (P55211 331-416 limits assumed): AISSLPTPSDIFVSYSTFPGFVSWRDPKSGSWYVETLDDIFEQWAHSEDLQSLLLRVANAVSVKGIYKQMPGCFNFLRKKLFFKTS

Caspase-2 = target: T3, Caspase-2 (Homo sapiens, UniProt P42575); experiment: Caspase-2 progress curve inhibition assay; details: second-order rate constant; Cbz-VDVAD-AFC substrate; Pipes buffer pH 7.2
T3 sequence (P42575 170-333 limits assumed): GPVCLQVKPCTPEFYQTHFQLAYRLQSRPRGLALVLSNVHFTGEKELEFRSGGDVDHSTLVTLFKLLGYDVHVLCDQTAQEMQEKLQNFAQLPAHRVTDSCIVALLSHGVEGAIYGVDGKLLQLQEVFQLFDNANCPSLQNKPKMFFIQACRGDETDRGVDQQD
T3 sequence (P42575 348-452 limits assumed): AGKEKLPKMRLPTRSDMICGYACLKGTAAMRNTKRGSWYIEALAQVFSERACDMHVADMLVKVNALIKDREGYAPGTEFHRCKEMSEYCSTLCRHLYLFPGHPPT

Caspase-7 = target: T4, Caspase-7 (Homo sapiens, UniProt P55210); experiment: Caspase-7 progress curve inhibition assay; details: second-order rate constant; Ac-DEVD-AMC substrate; Pipes buffer pH 7.2
T4 sequence (P55210 24-198 limits assumed): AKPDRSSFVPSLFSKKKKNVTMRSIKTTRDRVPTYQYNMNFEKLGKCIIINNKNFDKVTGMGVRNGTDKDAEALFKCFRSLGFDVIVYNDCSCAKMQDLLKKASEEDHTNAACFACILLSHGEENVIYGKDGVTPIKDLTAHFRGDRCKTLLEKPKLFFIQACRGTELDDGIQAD
T4 sequence (P55210 207-303 limits assumed): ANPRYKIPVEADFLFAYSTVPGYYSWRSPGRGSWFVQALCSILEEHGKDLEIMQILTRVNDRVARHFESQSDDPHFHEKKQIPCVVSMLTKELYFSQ

Caspase-8 = Caspase-8 (Homo sapiens, UniProt Q14790); experiment: Caspase-8 progress curve inhibition assay; details: second-order rate constant; Ac-DEVD-AMC substrate; Pipes buffer pH 7.2
Chain of Caspase-8 (Q14790 217-374 limits assumed): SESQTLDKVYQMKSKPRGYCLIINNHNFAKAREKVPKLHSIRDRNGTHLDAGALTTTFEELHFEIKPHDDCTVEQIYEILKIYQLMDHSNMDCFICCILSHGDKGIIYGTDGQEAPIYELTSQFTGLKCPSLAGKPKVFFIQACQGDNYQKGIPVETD
Chain of Caspase-8 (Q14790 385-479 limits assumed): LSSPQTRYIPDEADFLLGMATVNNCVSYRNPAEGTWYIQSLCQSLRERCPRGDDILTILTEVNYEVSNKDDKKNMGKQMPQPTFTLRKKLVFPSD

Caspase-3 = target: T5, Caspase-3 (Homo sapiens, UniProt P42574); experiment: Caspase-3 progress curve inhibition assay; details: for k2 Caspase-3: second-order rate constant, Ac-DEVD-AMC substrate, Pipes buffer pH 7.2
T5 sequence (P42574 29-175 limits assumed): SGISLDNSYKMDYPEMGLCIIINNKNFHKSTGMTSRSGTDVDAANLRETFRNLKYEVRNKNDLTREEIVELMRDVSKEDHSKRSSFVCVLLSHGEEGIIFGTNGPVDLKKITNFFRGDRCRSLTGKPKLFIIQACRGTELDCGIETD
T5 sequence (P42574 176-277 limits assumed): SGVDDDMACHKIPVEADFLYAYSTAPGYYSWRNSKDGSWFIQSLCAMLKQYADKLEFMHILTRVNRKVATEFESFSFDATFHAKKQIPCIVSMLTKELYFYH

Caspase-10 = target: T6, Caspase-10 (Homo sapiens, UniProt Q92851); experiment: Caspase-10 progress curve inhibition assay; details: second-order rate constant; Ac-DEVD-AMC substrate; Hepes/PEG buffer pH 7.0
T6 sequence (Q92851 220-415 limits assumed): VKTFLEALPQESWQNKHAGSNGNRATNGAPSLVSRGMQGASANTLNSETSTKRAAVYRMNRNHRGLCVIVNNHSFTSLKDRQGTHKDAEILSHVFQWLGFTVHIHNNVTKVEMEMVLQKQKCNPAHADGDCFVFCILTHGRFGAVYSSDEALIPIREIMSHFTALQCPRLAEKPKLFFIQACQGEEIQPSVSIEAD
T6 sequence (Q92851 416-521 limits assumed): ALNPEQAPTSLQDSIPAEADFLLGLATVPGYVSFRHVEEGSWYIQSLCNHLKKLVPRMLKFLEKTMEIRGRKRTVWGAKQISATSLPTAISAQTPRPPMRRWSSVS

Row | Compound | k2 Caspase-6 (Caspase-6) | k2 Caspase-9 (Caspase-9) | k2 Caspase-2 (Caspase-2) | k2 Caspase-7 (Caspase-7) | k2 Caspase-8 (Caspase-8) | k2 Caspase-3 (Caspase-3) | k2 Caspase-10 (Caspase-10) | selectivity: inhibits caspase-3 more potently than caspase-6 (Caspase-3; ratio of k2 caspase-3 to caspase-6) | selectivity: inhibits caspase-3 more potently than caspase-8 (Caspase-3; ratio of k2 caspase-3 to caspase-8) | k2 Caspase-3 (Caspase-3; listed as Cbz-Asp-Glu-Val-AAsp-CH═CH—CON(Bzl)2) | Km (Caspase-9; read-out: KM with caspase-9, substrate Ac-LEHD-AFC)
1 | CC(C)C[C@H](NC(=O)OCc1ccccc1)C(=O)N[C@@H](CCC(=O)O)C(=O)N[C@H](C(=O)NN(CC(=O)O)C(=O)/C=C/C(=O)N(C)Cc1cccc2ccccc12)[C@@H](C)O (relative stereo) [N^2—(N-Benzyloxycarbonylleucylglutamylthreonyl)-N^1-carboxylmethyl-N^1-trans-(3-(methyl-1-naphthylmethyl)carbamoylpropenoyl)hydrazine] | 21,700 M^−1s^−1 | 5,030 M^−1s^−1 | 290 M⁻¹ s⁻¹ | 1,100 M^−1s^−1 | 179,000 M^−1s^−1 | 11,200 M^−1s^−1 | 13,600 M^−1s^−1 |  |  |  | 
2 | CC(C)[C@H](NC(=O)OCc1ccccc1)C(=O)NN(CC(=O)O)C(=O)/C=C/C(=O)NCc1ccccc1 (stereo in doubt) [Cbz-Val-AAsp-CH═CH—CONHCH2Ph, N^1-trans-(3-Benzylcarbamoylpropenoyl)-N^2—(N-benzyloxycarbonylvalyl)-N^1-carboxymethylhydrazine] |  | 20 M⁻¹ s⁻¹ |  | 60 M⁻¹ s⁻¹ |  | 185 M⁻¹ s⁻¹ |  |  |  |  | 
3 | CCCCNC(=O)/C=C/C(=O)N(CC(=O)O)NC(=O)[C@@H](NC(=O)OCc1ccccc1)C(C)C (stereo in doubt) [Cbz-Val-AAsp-CH═CH—CONH-nBu, N^2—(N-Benzyloxycarbonylvalyl)-N^1-trans-(3-butylcarbamoylpropenoyl)-N^1-carboxymethylhydrazine] |  | 32 M⁻¹ s⁻¹ |  | 55 M⁻¹ s⁻¹ |  | 184 M⁻¹ s⁻¹ |  |  |  |  | 
4 | CC(C)[C@H](NC(=O)[C@H](CCC(=O)O)NC(=O)[C@H](CC(=O)O)NC(=O)OCc1ccccc1)C(=O)NN(CC(=O)O)C(=O)/C=C/C(=O)NCc1ccc(F)cc1 (relative stereo) [N^2—(N-Benzyloxycarbonylaspartylglutamylvalyl)-N^1-carboxymethyl-N^1-trans-(3-(4-fluorobenzyl)carbamoylpropenoyl)hydrazine] | 4,400 M^−1s^−1 | 900 M⁻¹ s⁻¹ | 130 M⁻¹ s⁻¹ | 329,000 M^−1s^−1 | 85,100 M^−1s^−1 | 2,100,000 M^−1s^−1 | 37,700 M^−1s^−1 |  |  |  | 
5 | CC[C@H](C)[C@H](NC(=O)OCc1ccccc1)C(=O)N[C@@H](CCC(=O)O)C(=O)N[C@H](C(=O)NN(CC(=O)O)C(=O)/C=C/C(=O)Nc1ccccc1)[C@@H](C)O (relative stereo) [Cbz-Ile-Glu-Thr-AAsp-CH═CH—CONHPh, N^2—(N-Benzyloxycarbonylisoleucylglutamylthreonyl)-N^1-carboxylmethyl-N^1-trans-(3-phenylcarbamoylpropenoyl)hydrazine] | 99,200 M^−1s^−1 | 940 M⁻¹ s⁻¹ | 365 M⁻¹ s⁻¹ | 920 M⁻¹ s⁻¹ | 245,000 M^−1s^−1 | 7,030 M^−1s^−1 | 9,210 M^−1s^−1 |  |  |  | 
6 | CC(C)[C@H](NC(=O)[C@H](CCC(=O)O)NC(=O)[C@H](CC(=O)O)NC(=O)OCc1ccccc1)C(=O)NN(CC(=O)O)C(=O)/C=C/C(=O)N(Cc1ccccc1)Cc1ccccc1 (relative stereo) [Cbz-Asp-Glu-Val-AAsp-CH═CH—CON(CH2Ph)2, N^2—(N-Benzyloxycarbonylaspartylglutamylvalyl)-N^1-carboxymethyl-N^1-trans-(3-dibenzylcarbamoylpropenoyl)hydrazine] | 5,100 M^−1s^−1 | 450 M⁻¹ s⁻¹ | 110 M⁻¹ s⁻¹ | 359,000 M^−1s^−1 | 8,600 M^−1s^−1 |  | 6,300 M^−1s^−1 | 588 fold | 348 fold | 3,000,000 M^−1s^−1 | 
7 | CCOC(=O)/C=C/C(=O)N(CC(=O)O)NC(=O)[C@@H](NC(=O)OCc1ccccc1)C(C)C (stereo in doubt) [Cbz-Val-AAsp-CH═CH—COOEt, N^2—(N-Benzyloxycarbonylvalyl)-N^1-carboxymethyl-N^1-trans-(3-ethoxycarbonylpropenoyl)hydrazine] |  | 5,240 M^−1s^−1 |  | 2,680 M^−1s^−1 |  | 8,000 M^−1s^−1 | 389 M⁻¹ s⁻¹ |  |  |  | 
8 | CC(C)[C@H](NC(=O)[C@H](CCC(=O)O)NC(=O)[C@H](CC(=O)O)NC(=O)OCc1ccccc1)C(=O)NN(CC(=O)O)C(=O)/C=C/C(=O)NCCc1ccccc1 (relative stereo) [Cbz-Asp-Glu-Val-AAsp-CH═CH—CONHCH2CH2Ph, N^2—(N-Benzyloxycarbonylaspartylglutamylvalyl)-N^1-carboxymethyl-N^1-trans-(3-phenethylcarbamoylpropenoyl)hydrazine] | 3,470 M^−1s^−1 | 655 M⁻¹ s⁻¹ | 120 M⁻¹ s⁻¹ | 267,000 M^−1s^−1 | 129,000 M^−1s^−1 | 1,950,000 M^−1s^−1 | 31,400 M^−1s^−1 |  |  |  | 
9 | CC[C@H](C)[C@H](NC(=O)OCc1ccccc1)C(=O)N[C@@H](CCC(=O)O)C(=O)N[C@H](C(=O)NN(CC(=O)O)C(=O)/C=C/C(=O)N(C)CCc1ccccc1)[C@@H](C)O (relative stereo) [N^2—(N-Benzyloxycarbonylisoleucylglutamylthreonyl)-N^1-carboxylmethyl-N^1-trans-(3-methylphenylethylcarbamoylpropenoyl)hydrazine] |  | 760 M⁻¹ s⁻¹ | 38 M⁻¹ s⁻¹ | 1,020 M^−1s^−1 | 60,500 M^−1s^−1 | 5,480 M^−1s^−1 | 8,770 M^−1s^−1 |  |  |  | 
10 | CC(C)[C@H](NC(=O)OCc1ccccc1)C(=O)NN(CC(=O)O)C(=O)/C=C/c1ccc(Cl)cc1 (stereo in doubt) [Cbz-Val-AAsp-CH═CH-4-Cl—Ph, N^2—(N-Benzyloxycarbonylvalyl)-N^1-carboxymethyl-N^1-trans-(3-(4-chlorophenyl)propenoyl)hydrazine] |  | 19 M⁻¹ s⁻¹ |  |  |  |  |  |  |  |  | 
11 | CC(=O)N[C@@H](CC(C)C)C(=O)N[C@@H](CCC(=O)O)C(=O)N[C@@H](Cc1cnc[nH]1)C(=O)N[C@@H](CC(=O)O)C(=O)Nc1ccc2c(C(F)(F)F)cc(=O)oc2c1 [Ac-LEHD-AFC, reference compound] (Ac-LEHD-{AFC}) |  |  |  |  |  |  |  |  |  |  | 114 µM
12 | CC(C)[C@H](NC(=O)OCc1ccccc1)C(=O)NN(CC(=O)O)C(=O)/C=C\Cl (stereo in doubt) [Cbz-Val-AAsp-CH═CH—Cl, N^2—(N-Benzyloxycarbonylvalyl)-N^1-carboxymethyl-N^1-cis-(3-chloropropenoyl)hydrazine] |  | 15 M⁻¹ s⁻¹ |  |  |  |  |  |  |  |  | 
